Experimental findings from the OPERA property sets (Mansouri et al. 2018) are described below.

Conditions in one series: not given
In general, boiling point refers to the temperature at which the vapour pressure of the liquid equals the pressure above it. By melting point is commonly meant the temperature of the solid-liquid transition. `CC(C)(C)OOC(C)(C)C` came in with a boiling point of 111 °C, a log10 vapour pressure (mmHg) of 1.4 and a melting point of -40 °C.
On to `CCCNC(=O)OCC`, for which the boiling point was determined as 192 °C.
On to `CCCCCCCCCCCCCCCCCCCO`, for which the melting point came to 63.3 °C.
Take `c1ccc2nccnc2c1`: the boiling point came to 230 °C and the melting point worked out at 28 °C.
The molecule `OC1CCCCCCCCCCCCCC1` displayed a melting point of 80.5 °C.
For `c1ccoc1`, the boiling point turned out to be 31.5 °C, the log10 vapour pressure (mmHg) worked out at 2.78, the melting point is -85.6 °C and the ready biodegradability entry is reported as “not readily biodegradable”.
As for `OC1CCOC1` (configuration not stated), the boiling point was 181 °C.
In the case of `C=C(C)c1ccc(O)cc1`, the ready biodegradability entry is “not readily biodegradable”.
Consider `COc1cc(OC)nc(N=C(O)NS(=O)(=O)c2c(Cl)nc3ccccn23)n1`, for which the log10 vapour pressure (mmHg) was -9.47.
Molecule `CN1CC[C@]23c4c5ccc(OCc6ccccc6)c4O[C@H]2[C@@H](O)C=C[C@H]3[C@H]1C5` came in with a melting point of 132 °C.
In turn, `Clc1cc2ccccc2c(Cl)c1Cl` showed a log10 Koa of 7.66 and a log10 vapour pressure (mmHg) of -4.7.
Consider `CCCCOCCOC(C)=O`, for which the boiling point was 192 °C, the log10 Henry constant (atm·m³/mol) is -5.26, the log10 vapour pressure (mmHg) is -0.426 and the melting point is -63 °C.
`CC(=O)OC[C@]12C[C@H](OC(=O)CC(C)C)C(C)=C[C@H]1O[C@@H]1[C@H](O)[C@@H](OC(C)=O)[C@@]2(C)[C@]12CO2` came in with a melting point of 152 °C.
Turning to `CC(=O)Nc1ccccc1[N+](=O)[O-]`, the melting point came to 94 °C.
On the same count and under the same terms, then `Oc1cccc(Cl)c1O`, with 48.5 °C; and `N#Cc1cc(Cl)ccc1N`, with 97 °C; and `O=C(Nc1ccc(Cl)c(Cl)c1)c1cc(Cl)cc(Cl)c1O`, with 161 °C.
The same measure, in the same setting: then `CC(=O)Nc1ccc(S(=O)(=O)Cl)cc1`, with 149 °C.
Consider `Cc1ccccc1[N+](=O)[O-]`, for which the boiling point came out at 222 °C, the log10 Henry constant (atm·m³/mol) was -4.9, the log10 vapour pressure (mmHg) was -0.726 and the melting point was -10 °C. Besides, the ready biodegradability entry is “not readily biodegradable”.
In the case of `CCCCC(C)S` (configuration not stated), the boiling point was 142 °C and the melting point was -147 °C.
In turn, `C=C1CC[C@@]2(O)[C@H]3Cc4ccc(O)c5c4[C@@]2(CCN3CC2CC2)[C@H]1O5` showed a melting point of 189 °C.
`O=[N+]([O-])c1ccc(Cl)cc1O` returned a melting point of 41 °C.
The molecule `CC=C(C)CCC` had a log10 vapour pressure (mmHg) of 1.7.
The molecule `Cc1cc(C)ncn1` yielded a boiling point of 159 °C and a melting point of 25 °C.
For the molecule `Brc1cc(Br)c(Br)cc1Br`, the melting point came to 182 °C.
Regarding `CC(C)C(C)O` (configuration not stated), the boiling point was 112 °C and the log10 vapour pressure (mmHg) came out at 0.961.
The molecule `C[C@H]1CCC(=O)N1` displayed a boiling point of 248 °C and a melting point of 43 °C.
Consider `ClC(Cl)c1ccccc1`, for which the boiling point was 205 °C, the log10 vapour pressure (mmHg) was -0.328, the melting point was -17 °C and the ready biodegradability entry is “readily biodegradable”.
`CC(=O)O[C@]1(C(C)=O)CC[C@H]2[C@@H]3C=C(Cl)C4=CC(=O)C=C[C@]4(C)[C@H]3CC[C@@]21C` returned a melting point of 168 °C.
As to `CCOC(=O)C=CC(=O)O`, the melting point is 70 °C.
Take `Clc1ccc2oc3c(Cl)c(Cl)c(Cl)c(Cl)c3c2c1Cl`: the log10 Koa was 10.9.
`Cc1c2ccccc2cc2c1ccc1ccccc12` gave a melting point of 141 °C.
`CCSCCSP(=S)(OC)OC`: the log10 vapour pressure (mmHg) was -4.77.
As for `C#CC(=O)O`, the melting point came out at 9 °C.
On the same count and under the same terms, in the case of `O=C(Nc1cc(Cl)cc(Cl)c1O)c1c(O)c(Cl)cc(Cl)c1Cl` it was 210 °C.
For `C=CCCC`, the boiling point came to 29.9 °C, the log10 Koa was found to be 1.93, the log10 vapour pressure (mmHg) was 2.8 and the melting point is -165 °C.
In turn, `Cc1c(CN2CCOC(c3ccccc3)C2C)c(=O)n(-c2ccccc2)n1C` (configuration not stated) displayed a melting point of 150 °C.
For the molecule `CCC(=O)C(C)=O`, the boiling point worked out at 108 °C.
In turn, `O=C1CSC(=O)N1` gave a melting point of 128 °C.
Molecule `CCCCC(CC)COC(C)=O` (configuration not stated) returned a boiling point of 199 °C, a log10 vapour pressure (mmHg) of -0.638 and a melting point of -80 °C.
The molecule `CNC(=O)ON=CC(C)(C)SC` registered a log10 Koc (L/kg) of 1.5, a log10 vapour pressure (mmHg) of -4.46 and a melting point of 99 °C.
As for `S=C1NCCN1`, the boiling point came out at 347 °C, the melting point was found to be 203 °C and the ready biodegradability entry is on record as “not readily biodegradable”.
`CCCCCCCCC(=O)OCCCC` returned a log10 vapour pressure (mmHg) of -1.67 and a melting point of -38 °C.
Consider `CC(=O)c1ccc(O)c(O)c1O`, for which the melting point was found to be 173 °C.
Still for that read-out and setting: in the case of `O=C(O)c1ccc(C(=O)O)o1` it was 342 °C.
In turn, `C1CC2CCC1CC2` came in with a log10 vapour pressure (mmHg) of 0.523.

The same series, now with this note: fish.
With `CCCCCCC1CCCCC1`, the log10 biotransformation half-life (days) is 0.7.
`Cc1cc(C(C)(C)C)c(O)c(C(C)(C)C)c1`: the log10 BCF came to 3.03 and the log10 biotransformation half-life (days) turned out to be 0.32.
The matching figures for `O=C(O)C1CC=CCC1C(=O)O` (configuration not stated): 0.3 and -0.57.
For `C=C(C)CCCCCCC`, the log10 biotransformation half-life (days) is -0.06.
Still for that read-out and setting: then `CCCCCCCCCCCCCC`, with 1.49.
In the case of `c1ccoc1`, the log10 BCF was determined as 0.7 and the log10 biotransformation half-life (days) was -0.84.
As to `Cc1ccccc1[N+](=O)[O-]`, the log10 BCF worked out at 1.26 and the log10 biotransformation half-life (days) was -0.48.
Regarding `Brc1cc(Br)c(Br)cc1Br`, the log10 BCF turned out to be 3.59 and the log10 biotransformation half-life (days) stood at 1.35.
In turn, `Cc1c2ccccc2cc2c1ccc1ccccc12` yielded a log10 biotransformation half-life (days) of -0.05.
Turning to `S=C1NCCN1`, the log10 BCF worked out at 0.26.
